According to ChEMBL document CHEMBL1127098, “Anticonvulsant activity of glycine-site NMDA antagonists. 1. 2-carboxyl prodrugs of 5,7-dichlorokynurenic acid” (Bioorg Med Chem Lett, 1993):

What was measured:
Mus musculus [1] = assay: Tested for anticonvulsant activity by the antagonism of audiogenic seizures in DBA/2 mice and number of mice protected from tonic seizure/number of mice tested at 250 mg/kg dose after 30 mins was reported (8 out of 8); format: functional
Mus musculus [2] = assay: Tested for anticonvulsant activity by the antagonism of audiogenic seizures in DBA/2 mice and number of mice protected from tonic seizure/number of mice tested at 250 mg/kg dose after 15 mins was reported (8 out of 8); format: functional
Mus musculus [3] = assay: Tested for anticonvulsant activity by the antagonism of audiogenic seizures in DBA/2 mice and number of mice protected from tonic seizure/number of mice tested at 250 mg/kg dose after 120 mins was reported (2 out of 8); format: functional
Mus musculus [4] = organism: Mus musculus; assay: Tested for the anticonvulsant activity by the antagonism of the audiogenic seizures in DBA/2 mice after 30 minutes; format: functional; settings: 0.5 h
Mus musculus [5] = assay: Tested for the effective dose required for anticonvulsant activity when given intraperitoneally after 15 minutes in DBA/2 mice; format: functional; settings: ip, 0.25 h
Mus musculus [6] = assay: Tested for anticonvulsant activity by the antagonism of audiogenic seizures in DBA/2 mice and number of mice protected from tonic seizure/number of mice tested at 250 mg/kg dose after 60 mins was reported (7 out of 8); format: functional
Mus musculus [7] = assay: Tested for anticonvulsant activity by the antagonism of audiogenic seizures in DBA/2 mice and number of mice protected from tonic seizure/number of mice tested at 250 mg/kg dose after 30 mins was reported (7 out of 8); format: functional
Mus musculus [8] = assay: Tested for anticonvulsant activity by the antagonism of audiogenic seizures in DBA/2 mice and number of mice protected from tonic seizure/number of mice tested at 250 mg/kg dose after 15 mins was reported (5 out of 7); format: functional
Mus musculus [9] = assay: Tested for anticonvulsant activity by the antagonism of audiogenic seizures in DBA/2 mice and number of mice protected from tonic seizure/number of mice tested at 250 mg/kg dose after 120 mins was reported (3 out of 7); format: functional
Mus musculus [10] = assay: Tested for anticonvulsant activity by the antagonism of audiogenic seizures in DBA/2 mice and number of mice protected from tonic seizure/number of mice tested at 250 mg/kg dose after 60 mins was reported (2 out of 8); format: functional
Mus musculus [11] = assay: Tested for anticonvulsant activity by the antagonism of audiogenic seizures in DBA/2 mice and number of mice protected from tonic seizure/number of mice tested at 250 mg/kg dose after 120 mins was reported (3 out of 9); format: functional
Mus musculus [12] = assay: Tested for anticonvulsant activity by the antagonism of audiogenic seizures in DBA/2 mice and number of mice protected from tonic seizure/number of mice tested at 250 mg/kg dose after 15 mins was reported (0 out of 8); format: functional
Mus musculus [13] = assay: Tested for anticonvulsant activity by the antagonism of audiogenic seizures in DBA/2 mice and number of mice protected from tonic seizure/number of mice tested at 250 mg/kg dose after 30 mins was reported (1 out of 8); format: functional
Mus musculus [14] = assay: Tested for anticonvulsant activity by the antagonism of audiogenic seizures in DBA/2 mice and number of mice protected from tonic seizure/number of mice tested at 250 mg/kg dose after 60 mins was reported (3 out of 8); format: functional
Mus musculus [15] = assay: Tested for anticonvulsant activity by the antagonism of audiogenic seizures in DBA/2 mice and number of mice protected from tonic seizure/number of mice tested at 250 mg/kg dose after 30 mins was reported (5 out of 8); format: functional
Mus musculus [16] = assay: Tested for the effective dose required for anticonvulsant activity when given intraperitoneally after 30 minutes in DBA/2 mice; format: functional; settings: ip, 0.5 h
Mus musculus [17] = assay: Tested for anticonvulsant activity by the antagonism of audiogenic seizures in DBA/2 mice and number of mice protected from tonic seizure/number of mice tested at 250 mg/kg dose after 60 mins was reported (4 out of 8); format: functional
Mus musculus [18] = assay: Tested for anticonvulsant activity by the antagonism of audiogenic seizures in DBA/2 mice and number of mice protected from tonic seizure/number of mice tested at 250 mg/kg dose after 120 mins was reported (1 out of 8); format: functional
Mus musculus [19] = assay: Tested for anticonvulsant activity by the antagonism of audiogenic seizures in DBA/2 mice and number of mice protected from tonic seizure/number of mice tested at 250 mg/kg dose after 15 mins was reported (1 out of 8); format: functional
Mus musculus [20] = assay: Tested for anticonvulsant activity by the antagonism of audiogenic seizures in DBA/2 mice and number of mice protected from tonic seizure/number of mice tested at 250 mg/kg dose after 30 mins was reported (1 out of 6); format: functional
Mus musculus [21] = assay: Tested for anticonvulsant activity by the antagonism of audiogenic seizures in DBA/2 mice and number of mice protected from tonic seizure/number of mice tested at 250 mg/kg dose after 120 mins was reported (0 out of 6); format: functional
Mus musculus [22] = assay: Tested for anticonvulsant activity by the antagonism of audiogenic seizures in DBA/2 mice and number of mice protected from tonic seizure/number of mice tested at 250 mg/kg dose after 60 mins was reported (1 out of 6); format: functional
Mus musculus [23] = assay: Tested for anticonvulsant activity by the antagonism of audiogenic seizures in DBA/2 mice and number of mice protected from tonic seizure/number of mice tested at 250 mg/kg dose after 15 mins was reported (4 out of 8); format: functional
Mus musculus [24] = assay: Tested for anticonvulsant activity by the antagonism of audiogenic seizures in DBA/2 mice and number of mice protected from tonic seizure/number of mice tested at 250 mg/kg dose after 30 mins was reported (0 out of 8); format: functional
Mus musculus [25] = assay: Tested for anticonvulsant activity by the antagonism of audiogenic seizures in DBA/2 mice and number of mice protected from tonic seizure/number of mice tested at 250 mg/kg dose after 120 mins was reported (0 out of 8); format: functional
Mus musculus [26] = assay: Tested for anticonvulsant activity by the antagonism of audiogenic seizures in DBA/2 mice and number of mice protected from tonic seizure/number of mice tested at 250 mg/kg dose after 60 mins was reported (5 out of 8); format: functional
[27] = Half-life at pH 7.4; format: ADME; settings: buffer
Mus musculus [28] = assay: Tested for anticonvulsant activity by the antagonism of audiogenic seizures in DBA/2 mice and number of mice protected from tonic seizure/number of mice tested at 250 mg/kg dose after 60 mins was reported (5 out of 7); format: functional
Mus musculus [29] = assay: Tested for anticonvulsant activity by the antagonism of audiogenic seizures in DBA/2 mice and number of mice protected from tonic seizure/number of mice tested at 250 mg/kg dose after 30 mins was reported (7 out of 7); format: functional
Mus musculus [30] = assay: Tested for anticonvulsant activity by the antagonism of audiogenic seizures in DBA/2 mice and number of mice protected from tonic seizure/number of mice tested at 250 mg/kg dose after 15 mins was reported (7 out of 7); format: functional
Mus musculus [31] = assay: Tested for anticonvulsant activity by the antagonism of audiogenic seizures in DBA/2 mice and number of mice protected from tonic seizure/number of mice tested at 250 mg/kg dose after 120 mins was reported (1 out of 7); format: functional
Mus musculus [32] = assay: Tested for anticonvulsant activity by the antagonism of audiogenic seizures in DBA/2 mice and number of mice protected from tonic seizure/number of mice tested at 250 mg/kg dose after 60 mins was reported (1 out of 7); format: functional
Mus musculus [33] = assay: Tested for the effective dose required for anticonvulsant activity when given intraperitoneally; format: functional; settings: ip

## CC(CN(C)C)OC(=O)c1cc(O)c2c(Cl)cc(Cl)cc2n1 (stereo unspecified)
Mus musculus [1]
  No. of mouse protected: 8
Mus musculus [2]
  No. of mouse protected: 8
Mus musculus [3]
  No. of mouse protected: 2
Mus musculus [4]
  ED50: 138 mg/kg
Mus musculus [5]
  ED50: 62 mg/kg
Mus musculus [6]
  No. of mouse protected: 7

## CN(C)CCCOC(=O)c1cc(O)c2c(Cl)cc(Cl)cc2n1
Mus musculus [7]
  No. of mouse protected: 7
Mus musculus [8]
  No. of mouse protected: 5
Mus musculus [9]
  No. of mouse protected: 3
Mus musculus [10]
  No. of mouse protected: 2

## O=C(OCCN1CCOCC1)c1cc(O)c2c(Cl)cc(Cl)cc2n1
Mus musculus [11]
  No. of mouse protected: 3
Mus musculus [12]
  No. of mouse protected: 0
Mus musculus [13]
  No. of mouse protected: 1
Mus musculus [14]
  No. of mouse protected: 3

## CN(C)CCNC(=O)c1cc(O)c2c(Cl)cc(Cl)cc2n1
Mus musculus [15]
  No. of mouse protected: 5
Mus musculus [16]
  ED50: 303 mg/kg
Mus musculus [17]
  No. of mouse protected: 4
Mus musculus [18]
  No. of mouse protected: 1
Mus musculus [19]
  No. of mouse protected: 1

## C[N+](C)(C)CCNC(=O)c1cc(O)c2c(Cl)cc(Cl)cc2n1.[I-]
Mus musculus [20]
  No. of mouse protected: 1
Mus musculus [21]
  No. of mouse protected: 0
Mus musculus [22]
  No. of mouse protected: 1
Mus musculus [23]
  No. of mouse protected: 4

## O=C(NCCN1CCOCC1)c1cc(O)c2c(Cl)cc(Cl)cc2n1
Mus musculus [24]
  No. of mouse protected: 0
Mus musculus [25]
  No. of mouse protected: 0
Mus musculus [10]
  No. of mouse protected: 2
Mus musculus [19]
  No. of mouse protected: 1

## O=C(OCCN1CCCC1)c1cc(O)c2c(Cl)cc(Cl)cc2n1
Mus musculus [7]
  No. of mouse protected: 7
Mus musculus [2]
  No. of mouse protected: 8
Mus musculus [25]
  No. of mouse protected: 0
Mus musculus [5]
  ED50: 128 mg/kg
Mus musculus [26]
  No. of mouse protected: 5

## CCN(CC)CCOC(=O)c1cc(O)c2c(Cl)cc(Cl)cc2n1
Mus musculus [1]
  No. of mouse protected: 8
Mus musculus [2]
  No. of mouse protected: 8
Mus musculus [16]
  ED50: 171 mg/kg
[27]
  half-life: 22 min
Mus musculus [28]
  No. of mouse protected: 5
Mus musculus [18]
  No. of mouse protected: 1
Mus musculus [5]
  ED50: 98 mg/kg

## CC(C)N(CCOC(=O)c1cc(O)c2c(Cl)cc(Cl)cc2n1)C(C)C
Mus musculus [29]
  No. of mouse protected: 7
Mus musculus [30]
  No. of mouse protected: 7
Mus musculus [31]
  No. of mouse protected: 1
Mus musculus [5]
  ED50: 152 mg/kg
Mus musculus [32]
  No. of mouse protected: 1

## O=C(O)c1cc(O)c2c(Cl)cc(Cl)cc2n1
Mus musculus [24]
  No. of mouse protected: 0
Mus musculus [33]
  ED50: 250 mg/kg
